{"source": "patent US20250222117A1", "about": "“COMPOUND COMPRISING RALTITREXED OR 5-MTHF LINKED TO A THERAPEUTIC AGENT, COMPOSITION, AND METHOD OF USE” (PURDUE RESEARCH FOUNDATION, priority 2022, published 2025)", "tested_on": "murine CD45+CD4+CD25+ Tregs", "test": "Treg suppression assay: pre-treated Tregs co-cultured with CFSE-labeled effector T cells, flow cytometry", "format": "cell-based, mouse", "conditions": "Tregs pre-treated 10 nM for 3 hours, 1:4 ratio, 4 days", "description": "Murine CD45+CD4+CD25+ Tregs and CD45+CD4+CD25− effector T cells were isolated from healthy mice using a StemCell mouse Treg Isolation Kit (StemCell Technologies, Cambridge, MA). The cells were used in two different assays.\nFirst, Tregs that were either pre-treated with 10 nM TLR7-1A agonist for 3 hours or left untreated were co-cultured with CFSE-labeled effector T cells at 1:4 ratio, with or without CD3/CD28 activation beads. Incubation proceeded for 4 days before flow cytometry analysis.", "data": [{"smiles": "CCCCc1nc2c(N)nc3ccccc3c2n1CC(C)(C)CO", "note": "[TLR7-1A agonist, 3-(4-amino-2-butyl-1H-imidazo[4,5-c]quinolin-1-yl)-2,2-dimethylpropan-1-ol]", "values": [{"measurement": "effect on Treg suppression of CD4+ T cell proliferation", "value": "reversed the suppressive activity"}]}]}
